Where a name gives a salt, the structure may show the parent alone. Where a SMILES comes first, the peptide text is derived from it.
How the values were obtained:
[1] = molecular target: T1, Trypsin (Bos taurus, UniProt P00760); test: Relative reactivity of substrate with trypsin (absorbancy at 405 nm); assay type: biochemical, Bovine; conditions: substrate 10 mM/l; trypsin 0.07 U/ml; Tris 50 mmol, NaCl 150 mmol, pH 8.1; 37° C. 10 minutes; absorbancy 405 nm; relative to S-2222 10 mM = 1.0
T1 construct: purchased Boehringer
T1 sequence (P00760 24-246): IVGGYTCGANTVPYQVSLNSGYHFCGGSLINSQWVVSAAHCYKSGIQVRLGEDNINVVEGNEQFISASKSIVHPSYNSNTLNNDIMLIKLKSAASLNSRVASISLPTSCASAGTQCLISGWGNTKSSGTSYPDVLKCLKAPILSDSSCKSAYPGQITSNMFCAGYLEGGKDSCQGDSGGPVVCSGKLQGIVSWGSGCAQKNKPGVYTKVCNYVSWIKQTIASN
Description: (§1) Specificity of the synthesized new substrate was examined by reacting with each enzyme. Details of reagents used are as describved below.
(§2) (2) Buffer: Kind of buffer, NaCl and its concentration and pH (25° C.) were set as shown below depending upon enzyme. […]
(§3) (3) Enzyme used: Enzyme used and its source, etc. are as follows. […]
(§4) (4) Terminate solution: 10% acetic acid aqueous solution.
(§5) Buffer, 0.5 ml and 0.1 ml of substrate solution are charged in a silicone-treated hard glass test tube or plastic test tube. The mixture is previously heated for 10 minutes in a thermostat at 37° C. Then, 0.05 ml of enzyme reagent is added to the mixture to perform enzyme reaction at 37° C. for 10 minutes.
Accurately 10 minutes after, 2.5 ml of the terminate solution is added to stop the enzyme reaction. Then the reaction mixture is allowed to stand at 37° C for 10 minutes and its absorbancy is measured at 405 nm.
(§6) Values in the tables indicate relative values when absorbancy of substrate S-2222, 10 mM, was made 1.0.

[2] = Solubility of the substrates in water; assay type: physicochemical
Description: (B) Solubility of the substrates of this invention and known substrates in water were examined.

[3] = tested on: Normal serum; test: Relative reactivity of substrate with normal serum (absorbancy at 405 nm); assay type: biochemical; conditions: substrate 10 mM/l; undiluted human normal serum; Tris 50 mmol, NaCl 150 mmol, pH 8.5; 37° C. 5 minutes; absorbancy 405 nm; relative to S-2222 10 mM = 1.0
Description: as §1, §2, §3
Normal Human -- -- undiluted
as §4
as §5, with “5” for “10”, “0.1” for “0.05”, “normal serum” for “enzyme reagent”
Accurately 5 minutes after, 2.0 ml of the terminate solution is added to stop the enzyme reaction. Then the reaction mixture is allowed to stand at 37° C. for 10 minutes and its absorbancy is measured at 405 nm.
as §6

[4] = molecular target: T2, α2 -macroglobulin-trypsin complex (α2 M-Try) (Bos taurus, UniProt P00760); test: Relative reactivity of substrate with α2 M-Try (absorbancy at 405 nm); assay type: biochemical, Bovine; conditions: substrate 10 mM/l; α2 M-Try 1/20 dilution; Bistrispropane 100 mmol, NaCl 150 mmol, pH 8.7; 37° C. 10 minutes; absorbancy 405 nm; relative to S-2222 10 mM = 1.0
T2 construct: purchased SIGMA (Try); Boehringer (α2 M)
T2 sequence (P00760 24-246): T1 sequence (P00760 24-246)
T2 sequence (Q7SIH1 24-1510 partner): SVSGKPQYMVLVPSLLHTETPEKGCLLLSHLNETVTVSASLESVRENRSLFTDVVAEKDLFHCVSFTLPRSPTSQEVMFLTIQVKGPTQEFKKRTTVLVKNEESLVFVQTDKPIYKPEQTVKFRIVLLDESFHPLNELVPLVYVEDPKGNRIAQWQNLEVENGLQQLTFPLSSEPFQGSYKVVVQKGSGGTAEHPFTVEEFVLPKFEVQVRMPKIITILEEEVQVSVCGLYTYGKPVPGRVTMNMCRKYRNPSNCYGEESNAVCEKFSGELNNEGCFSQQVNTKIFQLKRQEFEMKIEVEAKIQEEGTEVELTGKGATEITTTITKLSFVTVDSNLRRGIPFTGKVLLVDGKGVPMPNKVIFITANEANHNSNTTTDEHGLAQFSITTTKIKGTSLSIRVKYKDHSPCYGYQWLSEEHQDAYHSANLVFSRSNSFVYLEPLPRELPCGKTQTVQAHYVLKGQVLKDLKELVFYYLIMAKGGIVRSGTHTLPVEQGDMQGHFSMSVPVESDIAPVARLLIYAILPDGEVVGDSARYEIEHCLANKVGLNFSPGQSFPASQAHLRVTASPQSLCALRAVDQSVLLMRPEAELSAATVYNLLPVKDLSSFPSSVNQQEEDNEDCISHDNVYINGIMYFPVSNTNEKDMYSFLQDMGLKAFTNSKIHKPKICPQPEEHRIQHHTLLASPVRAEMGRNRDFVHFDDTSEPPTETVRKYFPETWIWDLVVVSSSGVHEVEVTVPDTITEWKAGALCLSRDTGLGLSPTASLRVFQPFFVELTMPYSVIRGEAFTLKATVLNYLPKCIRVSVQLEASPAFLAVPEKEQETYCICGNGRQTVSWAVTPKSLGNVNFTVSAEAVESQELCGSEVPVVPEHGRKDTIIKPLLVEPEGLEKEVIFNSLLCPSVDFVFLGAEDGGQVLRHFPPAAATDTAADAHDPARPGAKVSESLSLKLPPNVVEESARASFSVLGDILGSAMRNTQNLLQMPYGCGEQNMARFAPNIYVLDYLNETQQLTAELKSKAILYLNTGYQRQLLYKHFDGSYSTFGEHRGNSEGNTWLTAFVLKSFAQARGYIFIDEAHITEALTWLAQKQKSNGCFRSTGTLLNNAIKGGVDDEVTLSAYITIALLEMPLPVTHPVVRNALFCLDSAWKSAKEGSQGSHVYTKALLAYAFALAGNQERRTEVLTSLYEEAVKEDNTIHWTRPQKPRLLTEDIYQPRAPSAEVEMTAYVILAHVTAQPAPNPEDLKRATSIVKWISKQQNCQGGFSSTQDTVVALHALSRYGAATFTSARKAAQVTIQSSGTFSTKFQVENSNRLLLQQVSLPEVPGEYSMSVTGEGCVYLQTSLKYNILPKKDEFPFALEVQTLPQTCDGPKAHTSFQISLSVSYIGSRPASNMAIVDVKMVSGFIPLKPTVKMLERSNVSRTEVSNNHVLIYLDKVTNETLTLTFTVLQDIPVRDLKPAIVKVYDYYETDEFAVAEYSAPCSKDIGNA
Description: as §1, §2, §3, §4
Buffer, 0.5 ml and 0.1 ml of substrate solution are charged in a silicone-treated hard glass test tube or plastic test tube. The mixture is previously heated for 5 minutes in a thermostat at 37° C.
Then, 0.05 ml of enzyme reagent is added to the mixture to perform enzyme reaction at 37° C. for 10 minutes.
Accurately 10 minutes after, 1.0 ml of the terminate solution is added to stop the enzyme reaction. Then the reaction mixture is allowed to stand at 37° C. for 10 minutes and its absorbancy is measured at 405 nm.
as §6

Compound	Relative Reactivity to Enzyme (relative value of absorbance) Try [1]	Relative Reactivity to Enzyme (relative value of absorbance) Normal Serum [3]	Relative Reactivity to Enzyme (relative value of absorbance) α2 M-Try [4]	Solubility [2]
CC(C)[C@H](NC(=O)OCc1ccccc1)C(=O)NCC(=O)N[C@@H](CCCNC(=N)N)C(=O)Nc1ccc([N+](=O)[O-])cc1 [CHR-TRY, Z-Val-Gly-Arg-pNA-HCl, reference compound] (HELM PEPTIDE1{[O=C(OCc1ccccc1)[*:2]].V.G.R.[O=[N+]([O-])c1ccc(N[*:1])cc1]}$$$$V2.0)	0.50	1.70	0.73	insoluble
Cl.Cl.NC(N)=NCCC[C@H](NC(=O)[C@@H]1CCCCN1C(=O)[C@H](N)Cc1ccccc1)C(=O)Nc1ccc([N+](=O)[O-])cc1 [S-2238, HDPhePipArgpNA.2HCl, reference compound]	0.39	5.50	0.68	–
Cl.Cl.NC(N)=NCCC[C@H](NC(=O)CNC(=O)[C@H](N)CCC(=O)OCc1ccccc1)C(=O)Nc1ccc([N+](=O)[O-])cc1 [Substrate No. 2] (HELM PEPTIDE1{[dE].G.R.[O=[N+]([O-])c1ccc(N[*:1])cc1]}|CHEM1{[c1ccc(CO[*:1])cc1]}$PEPTIDE1,CHEM1,1:R3-1:R1$$$V2.0)	0.71	0.12	1.01	–
CC(C)OC(=O)CC[C@@H](N)C(=O)NCC(=O)N[C@@H](CCCN=C(N)N)C(=O)Nc1ccc([N+](=O)[O-])cc1.Cl.Cl [Substrate No. 3] (HELM PEPTIDE1{[dE].G.R.[O=[N+]([O-])c1ccc(N[*:1])cc1]}|CHEM1{[CC(C)O[*:1]]}$PEPTIDE1,CHEM1,1:R3-1:R1$$$V2.0)	0.67	0.41	1.20	–
Bz-Ile-Glu(OR)-Gly-Arg-pNA.HCl; R=H and CH3 [S-2222, reference compound]	1.0	1.0	1.0	6 mM/l

Continued, in another order:

Relative Reactivity to Enzyme (relative value of absorbance) Try [1]	Relative Reactivity to Enzyme (relative value of absorbance) Normal Serum [3]	Relative Reactivity to Enzyme (relative value of absorbance) α2 M-Try [4]	Compound	Solubility [2]
0.74	0.20	1.46	CCCN(CCC)C(=O)CC[C@@H](N)C(=O)NCC(=O)N[C@@H](CCCN=C(N)N)C(=O)Nc1ccc([N+](=O)[O-])cc1.Cl.Cl [Substrate No. 21]	–
0.84	0.03	1.19	H-D-Glu(OCH.(C2 H5)2)-Gly-Arg-ANBS.2HCl [Substrate No. 1]	–

Source: patent US5115099A, “Substrates for determination of enzyme activity and intermediates for synthesis of the substrates as well as process for producing the intermediates” (Nitto Boseki Co., Ltd., priority 1988, dated 1992)
